According to patent publication US8148391B2 (Cephalon, Inc., priority 2006, dated 2012):
Like-named read-outs stand apart in the source and are kept apart here.

Experiments:
[1] = molecular target: T1, c-Met (cytoplasmic domain) (Homo sapiens, UniProt P08581); assay: c-Met Kinase Assay (same methods as for ALK, with modifications); type: biochemical
T1 construct: 10 ng/mL c-Met (cytoplasmic domain, Invitrogen Corporation #PV3143); purchased Invitrogen Corporation PV3143
Summary of the method: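 Europium-labeled PT66 antibody (Eu-N1) detects substrate phosphorylation on wells coated with phospholipase C-γ at 10 μg/mL. The kinase, the cytoplasmic domain of c-Met at 10 ng/mL, starts the reaction, which proceeds 15 minutes at 37° C.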

[2] = molecular target: T2, baculovirus-expressed ALK (Homo sapiens, UniProt Q9UM73); assay: ALK Kinase Assay (ELISA-type, time-resolved fluorescence); type: biochemical
T2 construct: host or cells: baculovirus expression system
T2 sequence (Q9UM73 19-1620): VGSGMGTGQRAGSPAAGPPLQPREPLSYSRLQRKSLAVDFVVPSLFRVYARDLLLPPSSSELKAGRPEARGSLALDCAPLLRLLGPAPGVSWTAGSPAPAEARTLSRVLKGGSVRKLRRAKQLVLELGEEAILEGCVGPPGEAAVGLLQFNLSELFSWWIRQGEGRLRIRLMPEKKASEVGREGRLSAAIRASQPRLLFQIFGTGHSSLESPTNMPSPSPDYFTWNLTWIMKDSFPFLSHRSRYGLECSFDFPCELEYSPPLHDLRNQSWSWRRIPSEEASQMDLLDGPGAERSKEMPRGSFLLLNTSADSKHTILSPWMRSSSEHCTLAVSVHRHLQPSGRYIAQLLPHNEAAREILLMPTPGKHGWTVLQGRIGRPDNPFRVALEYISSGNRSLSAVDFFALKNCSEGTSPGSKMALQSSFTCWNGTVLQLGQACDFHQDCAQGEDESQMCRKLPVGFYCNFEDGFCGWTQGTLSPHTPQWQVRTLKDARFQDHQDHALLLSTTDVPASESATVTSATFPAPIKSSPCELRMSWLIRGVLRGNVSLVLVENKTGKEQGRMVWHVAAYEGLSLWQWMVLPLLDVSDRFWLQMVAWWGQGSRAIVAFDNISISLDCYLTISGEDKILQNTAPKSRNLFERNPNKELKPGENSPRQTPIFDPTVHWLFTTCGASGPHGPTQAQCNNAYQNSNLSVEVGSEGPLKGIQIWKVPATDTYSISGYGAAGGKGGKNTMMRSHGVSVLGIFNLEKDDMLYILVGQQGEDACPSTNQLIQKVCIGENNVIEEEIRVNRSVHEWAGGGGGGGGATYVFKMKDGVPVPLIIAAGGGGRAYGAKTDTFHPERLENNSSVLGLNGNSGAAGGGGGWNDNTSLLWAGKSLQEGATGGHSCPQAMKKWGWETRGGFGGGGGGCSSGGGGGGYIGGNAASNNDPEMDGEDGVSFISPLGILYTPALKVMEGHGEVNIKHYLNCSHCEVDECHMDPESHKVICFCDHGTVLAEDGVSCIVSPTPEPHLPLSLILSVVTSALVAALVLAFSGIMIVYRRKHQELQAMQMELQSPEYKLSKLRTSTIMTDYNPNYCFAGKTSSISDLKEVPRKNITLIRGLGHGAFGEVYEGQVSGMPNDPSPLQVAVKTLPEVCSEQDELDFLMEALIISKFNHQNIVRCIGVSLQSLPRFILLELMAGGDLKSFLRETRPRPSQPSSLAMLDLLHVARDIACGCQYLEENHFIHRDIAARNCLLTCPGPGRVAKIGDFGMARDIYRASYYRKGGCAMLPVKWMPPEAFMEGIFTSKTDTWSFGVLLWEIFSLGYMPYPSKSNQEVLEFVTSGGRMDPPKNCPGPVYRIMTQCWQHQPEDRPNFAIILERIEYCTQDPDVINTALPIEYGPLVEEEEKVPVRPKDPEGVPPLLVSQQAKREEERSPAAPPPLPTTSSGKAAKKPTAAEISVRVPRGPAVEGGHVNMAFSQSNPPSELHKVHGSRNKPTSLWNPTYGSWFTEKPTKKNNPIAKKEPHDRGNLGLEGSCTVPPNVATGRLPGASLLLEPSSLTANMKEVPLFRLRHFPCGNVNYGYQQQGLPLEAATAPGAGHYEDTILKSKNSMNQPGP
Summary of the method: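 Plates coated with phospholipase C-γ substrate (10 μg/mL in TBS); reaction started with 30 ng/ml ALK and run 15 min at 37° C. Phosphorylated substrate detected with Eu-N1-labeled PT66 antibody. IC50 from sigmoidal variable-slope fit of percent inhibition vs log concentration.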

[3] = c-Met kinase inhibition, 1 μM ATP (Km level), read-out: cMet Activity
[4] = ALK kinase inhibition, 1 μM ATP (Km level), read-out: ALK Activity
[5] = c-Met kinase inhibition, 1 μM ATP, read-out: cMet Activity
[6] = ALK kinase inhibition, 1 μM ATP, read-out: ALK Activity
[7] = 1 μM ATP (Km level), read-out: cMet Activity (c-Met Kinase Inhibition, IC50)
[8] = 1 μM ATP (Km level), read-out: ALK Activity (ALK Kinase Inhibition, IC50)
[9] = 1 μM ATP (Km level), 10 ng/mL c-Met, read-out: cMet Activity (c-Met kinase inhibition, IC50 class)
[10] = 1 μM ATP (Km level), 30 ng/ml ALK, 37° C., 15 minutes, read-out: ALK Activity (ALK kinase inhibition, IC50 class)

T1 sequence (P08581 956-1390 limits assumed): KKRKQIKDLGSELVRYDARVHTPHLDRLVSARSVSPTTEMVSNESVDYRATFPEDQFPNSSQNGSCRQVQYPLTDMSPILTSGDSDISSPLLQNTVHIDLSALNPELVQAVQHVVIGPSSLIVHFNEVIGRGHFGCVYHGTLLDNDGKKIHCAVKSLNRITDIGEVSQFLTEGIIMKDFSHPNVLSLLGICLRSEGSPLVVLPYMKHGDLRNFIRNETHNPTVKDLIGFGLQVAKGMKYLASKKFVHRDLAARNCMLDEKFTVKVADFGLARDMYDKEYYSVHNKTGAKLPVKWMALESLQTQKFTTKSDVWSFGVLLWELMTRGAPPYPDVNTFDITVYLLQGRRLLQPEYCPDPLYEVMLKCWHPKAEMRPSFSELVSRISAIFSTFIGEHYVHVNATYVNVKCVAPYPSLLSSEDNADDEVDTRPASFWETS

Compound | IC50 [1, 3] | IC50 [2, 4] | IC50 [1, 7] | IC50 [2, 8] | also measured
CNC(=O)c1cc(Cl)cc(Cl)c1Nc1nc(Nc2ccc3c(c2)CCN(CCOC)CC3)ncc1Cl [Example 314, 3,5-Dichloro-2-{5-chloro-2-[3-(2-methoxy-ethyl)-2,3,4,5-tetrahydro-1H-benzo[d]azepin-7-ylamino]-pyrimidin-4-ylamino}-N-methyl-benzamide] | < 0.1 µM | 0.1 to 1 µM |  |  | 
COc1cc2c(cc1Nc1ncc(Cl)c(Nc3ccccc3OCC#N)n1)CCOC(=O)N2C [Example 1516, {2-[5-Chloro-2-(3-methoxy-5-methyl-6-oxo-5,6,8,9-tetrahydro-7-oxa-5-aza-benzocyclohepten-2-ylamino)-pyrimidin-4-ylamino]-phenoxy}-acetonitrile] |  |  |  |  | IC50 [1, 5]: 1 to 10 µM; IC50 [2, 6]: < 0.1 µM
COc1c(Nc2ncc(Cl)c(Nc3ccccc3S(=O)(=O)N(C)C)n2)ccc2c1CCC(N1CCN(C)CC1)CC2 (stereo not drawn) [Example 911, 2-{5-Chloro-2-[1-methoxy-7-(4-methyl-piperazin-1-yl)-6,7,8,9-tetrahydro-5H-benzocyclohepten-2-ylamino]-pyrimidin-4-ylamino}-N,N-dimethyl-benzenesulfonamide] |  |  | 1 to 10 µM | < 0.1 µM | 
COc1cc(N2CCOCC2)ccc1Nc1nc(Nc2ccc3c(c2)CCN(CC(=O)N(C)C)CC3)ncc1Cl [Example 1368, 2-{7-[5-Chloro-4-(2-methoxy-4-morpholin-4-yl-phenylamino)-pyrimidin-2-ylamino]-1,2,4,5-tetrahydro-benzo[d]azepin-3-yl}-N,N-dimethyl-acetamide] |  |  |  |  | IC50 [1, 9]: 1 to 10 µM; IC50 [2, 10]: < 0.1 µM
CNC(=O)c1cc(C)ccc1Nc1nc(Nc2ccc3c(c2)CCN(CCOC)CC3)ncc1Cl [Example 308, 2-{5-Chloro-2-[3-(2-methoxy-ethyl)-2,3,4,5-tetrahydro-1H-benzo[d]azepin-7-ylamino]-pyrimidin-4-ylamino}-5,N-dimethyl-benzamide] | < 0.1 µM | < 0.1 µM |  |  | 
CNC(=O)c1ccccc1Nc1nc(Nc2ccc3c(c2)C2CCC3CNC2)ncc1Cl (stereo not drawn) [Example 277, 2-[2-(10-Aza-tricyclo[6.3.2.0*2,7*]trideca-2,4,6-trien-4-ylamino)-5-chloro-pyrimidin-4-ylamino]-N-methyl-benzamide] | < 0.1 µM | < 0.1 µM |  |  | 
COc1ccc(Nc2nc(Nc3ccc4c(c3)CCC(N3CCOCC3)CC4)ncc2Cl)c(-n2cccn2)c1 (stereo not drawn) [Example 622, 5-Chloro-N*4*-(4-methoxy-2-pyrazol-1-yl-phenyl)-N*2*-(7-morpholin-4-yl-6,7,8,9-tetrahydro-5H-benzocyclohepten-2-yl)-pyrimidine-2,4-diamine] |  |  | 1 to 10 µM | < 0.1 µM | 
COc1cc2c(cc1Nc1ncc(Cl)c(Nc3ccccc3S(=O)(=O)C(C)C)n1)CCN(C(CF)CF)CC2 [Example 1394, Chloro-N(2)-[3-(2-fluoro-1-fluoromethyl-ethyl)-8-methoxy-2,3,4,5-tetrahydro-1H-benzo[d]azepin-7-yl]-N(4)-[2-(propane-2-sulfonyl)-phenyl]-pyrimidine-2,4-diamine] |  |  |  |  | IC50 [1, 9]: > 10 µM; IC50 [2, 10]: < 0.1 µM
CNC(=O)c1ccccc1Nc1nc(Nc2ccc3c(c2Br)C2CCC3CN(C(=O)C(F)(F)F)C2)ncc1Cl (stereo not drawn) [Example 297, 2-{2-[3-Bromo-10-(2,2,2-trifluoro-acetyl)-10-aza-tricyclo[6.3.2.0*2,7*]trideca-2,4,6-trien-4-ylamino]-5-chloro-pyrimidin-4-ylamino}-N-methyl-benzamide] | > 10 µM | 0.1 to 1 µM |  |  | 
COc1cc2c(cc1Nc1ncc(Cl)c(Nc3ccc(Cl)cc3S(=O)(=O)N(C)C)n1)CCN(CC(=O)N(C)C)CC2 [Example 832, 2-{7-[5-Chloro-4-(4-chloro-2-dimethylsulfamoyl-phenylamino)-pyrimidin-2-ylamino]-8-methoxy-1,2,4,5-tetrahydro-benzo[d]azepin-3-yl}-N,N-dimethyl-acetamide] |  |  | > 10 µM | < 0.1 µM | 
COc1cc2c(cc1Nc1ncc(Cl)c(Nc3ccc(N4CCN(C)CC4)cc3OC)n1)CCN(CC(N)=O)CC2 [Example 807, 2-(7-{5-Chloro-4-[2-methoxy-4-(4-methyl-piperazin-1-yl)-phenylamino]-pyrimidin-2-ylamino}-8-methoxy-1,2,4,5-tetrahydro-benzo[d]azepin-3-yl)-acetamide] |  |  | > 10 µM | < 0.1 µM | 
CNC(=O)c1cccc(F)c1Nc1nc(Nc2ccc3c(c2)CCC(=O)NC3(C)C)ncc1Cl [Example 1826, 2-(5-Chloro-2-(1,1-dimethyl-3-oxo-2,3,4,5-tetrahydro-1H-benzo[c]azepin-7-ylamino)pyrimidin-4-ylamino)-3-fluoro-N-methylbenzamide] |  |  |  |  | IC50 [1, 5]: 1 to 10 µM; IC50 [2, 6]: 1 to 10 µM
CNC(=O)c1cccc(Cl)c1Nc1nc(Nc2ccc3c(c2)CCOC(=O)N3C)ncc1Cl [Example 1743, 3-Chloro-2-[5-chloro-2-(5-methyl-6-oxo-5,6,8,9-tetrahydro-7-oxa-5-aza-benzocyclohepten-2-ylamino)-pyrimidin-4-ylamino]-N-methyl-benzamide] |  |  |  |  | IC50 [1, 5]: < 0.1 µM; IC50 [2, 6]: 1 to 10 µM
CNC(=O)c1cccc(F)c1Nc1nc(Nc2ccc3c(c2)CCCC(=O)N3CCOC)ncc1Cl [Example 356, 2-{5-Chloro-2-[1-(2-methoxy-ethyl)-2-oxo-2,3,4,5-tetrahydro-1H-benzo[b]azepin-7-ylamino]-pyrimidin-4-ylamino}-3-fluoro-N-methyl-benzamide] | < 0.1 µM | < 0.1 µM |  |  | 
COc1ccccc1Nc1nc(Nc2cccc3c2OCCCC3)ncc1Cl [Example 864, 5-Chloro-N*4*-(2-methoxy-phenyl)-N*2*-(2,3,4,5-tetrahydrobenzo[b]oxepin-9-yl)-pyrimidine-2,4-diamine] |  |  | > 10 µM | 1 to 10 µM | 
COc1cc2c(cc1Nc1ncc(Cl)c(Nc3ccc(N4CCN(C5CCN(C)CC5)CC4)cc3OC)n1)CCN(CC(=O)N(C)C)CC2 [Example 835, 2-[7-(5-Chloro-4-{2-methoxy-4-[4-(1-methyl-piperidin-4-yl)-piperazin-1-yl]-phenylamino}-pyrimidin-2-ylamino)-8-methoxy-1,2,4,5-tetrahydro-benzo[d]azepin-3-yl]-N,N-dimethyl-acetamide] |  |  | > 10 µM | < 0.1 µM | 
CC1(C)CCC(=O)Nc2ccc(Nc3ncc(Cl)c(Nc4c(F)cccc4C(=O)NCC#N)n3)cc21 [Example 1044, 2-[5-Chloro-2-(5,5-dimethyl-2-oxo-2,3,4,5-tetrahydro-1H-benzo[b]azepin-7-ylamino)-pyrimidin-4-ylamino]-N-cyanomethyl-3-fluoro-benzamide] |  |  |  |  | IC50 [1, 9]: < 0.1 µM; IC50 [2, 10]: < 0.1 µM
COc1c(Nc2ncc(Cl)c(Nc3ccccc3S(=O)(=O)C(C)C)n2)ccc2c1CCCC(N1CCOCC1)C2 (stereo not drawn) [Example 947, 5-Chloro-N(2)-(1-methoxy-6-morpholin-4-yl-6,7,8,9-tetrahydro-5H-benzocyclohepten-2-yl)-N(4)-[2-(propane-2-sulfonyl)-phenyl]-pyrimidine-2,4-diamine] |  |  | > 10 µM | < 0.1 µM | 
COc1cc(N2CCOCC2)ccc1Nc1nc(Nc2ccc3c(c2OC)CCCC(=O)N3)ncc1Cl [Example 140, 7-[5-Chloro-4-(2-methoxy-4-morpholin-4-yl-phenylamino)-pyrimidin-2-ylamino]-6-methoxy-1,3,4,5-tetrahydro-benzo[b]azepin-2-one] | > 10 µM | < 0.1 µM |  |  | 
COc1ccc2c(c1Nc1ncc(Cl)c(Nc3ccccc3-n3cccn3)n1)CCC(NCC(F)F)CC2 (stereo not drawn) [Example 1076, 5-Chloro-N*2*-[7-(2,2-difluoro-ethylamino)-2-methoxy-6,7,8,9-tetrahydro-5H-benzocyclohepten-1-yl]-N*4*-(2-pyrazol-1-yl-phenyl)-pyrimidine-2,4-diamine] |  |  |  |  | IC50 [1, 9]: > 10 µM; IC50 [2, 10]: 0.1 to 1 µM
COCCN1CCc2cc(Nc3ncc(Cl)c(Nc4ccccc4-c4ncccc4C)n3)c(OC)cc2CC1 [Example 987, 5-Chloro-N*2*-[8-methoxy-3-(2-methoxy-ethyl)-2,3,4,5-tetrahydro-1H-benzo[d]azepin-7-yl]-N*4*-[2-(3-methyl-pyridin-2-yl)-phenyl]-pyrimidine-2,4-diamine] |  |  | > 10 µM | < 0.1 µM | 
CNC(=O)c1cccc(OC)c1Nc1nc(Nc2ccc3c(c2)CCN(CCOC)CC3)ncc1Cl [Example 315, 2-{5-Chloro-2-[3-(2-methoxy-ethyl)-2,3,4,5-tetrahydro-1H-benzo[d]azepin-7-ylamino]-pyrimidin-4-ylamino}-3-methoxy-N-methyl-benzamide] | 0.1 to 1 µM | 0.1 to 1 µM |  |  | 
COCCN(C)C1CCc2ccc(Nc3ncc(Cl)c(N[C@@H]4CCCC[C@H]4NS(C)(=O)=O)n3)c(OC)c2CC1 (stereo partly drawn) [Example 702, N-[(1R,2R)-2-(5-Chloro-2-{1-methoxy-7-[(2-methoxy-ethyl)-methyl-amino]-6,7,8,9-tetrahydro-5H-benzocyclohepten-2-ylamino}-pyrimidin-4-ylamino)-cyclohexyl]-methanesulfonamide] |  |  | > 10 µM | < 0.1 µM | 
COc1cc(N2CCOCC2)ccc1Nc1nc(Nc2ccc3c(c2)CCCCN3C)ncc1Cl [Example 105, 5-Chloro-N*4*-(2-methoxy-4-morpholin-4-yl-phenyl)-N*2*-(1-methyl-2,3,4,5-tetrahydro-1H-benzo[b]azepin-7-yl)-pyrimidine-2,4-diamine] | > 10 µM | < 0.1 µM |  |  | 
